Assay [1] addresses T1, Protein deacetylase HDAC6 (Homo sapiens, UniProt Q9UBN7).
T1 sequence (Q9UBN7 whole entry): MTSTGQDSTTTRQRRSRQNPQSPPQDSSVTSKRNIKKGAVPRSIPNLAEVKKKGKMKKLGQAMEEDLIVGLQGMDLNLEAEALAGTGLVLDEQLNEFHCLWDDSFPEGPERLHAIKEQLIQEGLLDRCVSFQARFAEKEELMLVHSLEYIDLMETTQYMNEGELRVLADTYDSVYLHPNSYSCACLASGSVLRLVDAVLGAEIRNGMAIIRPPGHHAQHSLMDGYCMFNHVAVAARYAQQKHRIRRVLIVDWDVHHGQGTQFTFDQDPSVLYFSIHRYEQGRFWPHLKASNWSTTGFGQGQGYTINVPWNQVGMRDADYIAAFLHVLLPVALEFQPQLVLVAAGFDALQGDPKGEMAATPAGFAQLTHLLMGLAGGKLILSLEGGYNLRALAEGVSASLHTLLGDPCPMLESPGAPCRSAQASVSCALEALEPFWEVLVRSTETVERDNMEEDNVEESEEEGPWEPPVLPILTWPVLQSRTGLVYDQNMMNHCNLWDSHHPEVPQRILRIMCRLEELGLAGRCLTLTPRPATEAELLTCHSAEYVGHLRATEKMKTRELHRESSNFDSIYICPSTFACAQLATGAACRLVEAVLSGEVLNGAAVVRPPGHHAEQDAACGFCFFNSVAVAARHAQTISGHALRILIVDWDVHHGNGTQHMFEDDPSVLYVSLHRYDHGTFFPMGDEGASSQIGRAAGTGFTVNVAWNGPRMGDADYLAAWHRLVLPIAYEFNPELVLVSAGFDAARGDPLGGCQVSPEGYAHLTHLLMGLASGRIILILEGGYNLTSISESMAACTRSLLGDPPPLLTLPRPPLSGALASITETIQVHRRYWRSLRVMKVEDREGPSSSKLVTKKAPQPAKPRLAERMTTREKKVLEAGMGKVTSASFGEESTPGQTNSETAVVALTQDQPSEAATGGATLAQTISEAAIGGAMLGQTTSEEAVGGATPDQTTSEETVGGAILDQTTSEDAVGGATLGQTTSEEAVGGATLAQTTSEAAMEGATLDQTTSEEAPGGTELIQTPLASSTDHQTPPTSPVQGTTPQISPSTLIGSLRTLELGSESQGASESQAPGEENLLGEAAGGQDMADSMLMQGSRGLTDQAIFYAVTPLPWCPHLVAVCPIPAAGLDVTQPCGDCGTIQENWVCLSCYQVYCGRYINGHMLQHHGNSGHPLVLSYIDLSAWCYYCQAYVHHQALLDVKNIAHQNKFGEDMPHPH
Description: Inhibition of recombinant HDAC6 (unknown origin) using Boc-Lys(acetyl)-AMC as substrate preincubated for 1 hr followed by substrate addition and measured after 2 hrs by fluorescence based assay.

Assay [2] in a line: Antioxidant activity assessed as DPPH radical scavenging activity incubated for 30 mins under dark condition by microplate reader based assay. The assay is classed as functional.
In assay [3] the target is Histone deacetylase 1 (Homo sapiens, UniProt Q13547). Description: Inhibition of recombinant HDAC1 (unknown origin) using Boc-Lys(Ac)-AMC as substrate pre-incubated for 1 hr followed by substrate addition and measured after 2 hrs by fluorescence based assay.
Histone deacetylase 1, sequence (Q13547 whole entry): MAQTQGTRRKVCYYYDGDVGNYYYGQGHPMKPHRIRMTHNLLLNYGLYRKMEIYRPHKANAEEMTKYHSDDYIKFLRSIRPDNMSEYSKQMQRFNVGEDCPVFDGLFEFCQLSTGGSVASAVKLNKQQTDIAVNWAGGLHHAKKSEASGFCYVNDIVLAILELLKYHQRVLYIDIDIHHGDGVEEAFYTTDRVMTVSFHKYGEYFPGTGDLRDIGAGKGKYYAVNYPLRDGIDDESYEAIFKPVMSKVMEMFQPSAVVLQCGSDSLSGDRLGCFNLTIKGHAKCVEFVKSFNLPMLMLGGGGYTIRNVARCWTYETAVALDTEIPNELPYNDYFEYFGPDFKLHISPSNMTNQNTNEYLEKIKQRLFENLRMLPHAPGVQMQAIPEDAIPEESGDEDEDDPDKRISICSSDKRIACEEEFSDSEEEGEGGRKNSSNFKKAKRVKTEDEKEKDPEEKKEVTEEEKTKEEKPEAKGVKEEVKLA
Assay [4] deals with T2, Histone deacetylase 8 (Homo sapiens, UniProt Q9BY41).
T2 sequence (Q9BY41 whole entry): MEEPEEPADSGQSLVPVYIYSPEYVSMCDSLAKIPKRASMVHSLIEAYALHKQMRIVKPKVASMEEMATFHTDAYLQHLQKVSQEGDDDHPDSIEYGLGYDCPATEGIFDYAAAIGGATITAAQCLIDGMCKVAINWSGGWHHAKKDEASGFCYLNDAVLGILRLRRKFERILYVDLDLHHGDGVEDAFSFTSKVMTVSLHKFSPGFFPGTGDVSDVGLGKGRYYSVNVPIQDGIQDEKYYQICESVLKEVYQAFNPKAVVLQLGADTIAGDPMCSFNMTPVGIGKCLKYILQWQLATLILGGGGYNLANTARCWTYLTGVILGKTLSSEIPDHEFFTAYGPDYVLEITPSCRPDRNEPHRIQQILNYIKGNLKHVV
Description: Inhibition of recombinant HDAC8 (unknown origin) using Boc-Lys(trifluoroacetyl)-AMC as substrate pre-incubated for 1 hr followed by substrate addition and measured after 2 hrs by fluorescence based assay.

For assay [5], the target named is Histone deacetylase 4 (Homo sapiens, UniProt P56524). Description: Inhibition of recombinant HDAC4 (unknown origin) using Boc-Lys(trifluoroacetyl)-AMC as substrate pre-incubated for 1 hr followed by substrate addition and measured after 2 hrs by fluorescence based assay.
Histone deacetylase 4, sequence (P56524 whole entry): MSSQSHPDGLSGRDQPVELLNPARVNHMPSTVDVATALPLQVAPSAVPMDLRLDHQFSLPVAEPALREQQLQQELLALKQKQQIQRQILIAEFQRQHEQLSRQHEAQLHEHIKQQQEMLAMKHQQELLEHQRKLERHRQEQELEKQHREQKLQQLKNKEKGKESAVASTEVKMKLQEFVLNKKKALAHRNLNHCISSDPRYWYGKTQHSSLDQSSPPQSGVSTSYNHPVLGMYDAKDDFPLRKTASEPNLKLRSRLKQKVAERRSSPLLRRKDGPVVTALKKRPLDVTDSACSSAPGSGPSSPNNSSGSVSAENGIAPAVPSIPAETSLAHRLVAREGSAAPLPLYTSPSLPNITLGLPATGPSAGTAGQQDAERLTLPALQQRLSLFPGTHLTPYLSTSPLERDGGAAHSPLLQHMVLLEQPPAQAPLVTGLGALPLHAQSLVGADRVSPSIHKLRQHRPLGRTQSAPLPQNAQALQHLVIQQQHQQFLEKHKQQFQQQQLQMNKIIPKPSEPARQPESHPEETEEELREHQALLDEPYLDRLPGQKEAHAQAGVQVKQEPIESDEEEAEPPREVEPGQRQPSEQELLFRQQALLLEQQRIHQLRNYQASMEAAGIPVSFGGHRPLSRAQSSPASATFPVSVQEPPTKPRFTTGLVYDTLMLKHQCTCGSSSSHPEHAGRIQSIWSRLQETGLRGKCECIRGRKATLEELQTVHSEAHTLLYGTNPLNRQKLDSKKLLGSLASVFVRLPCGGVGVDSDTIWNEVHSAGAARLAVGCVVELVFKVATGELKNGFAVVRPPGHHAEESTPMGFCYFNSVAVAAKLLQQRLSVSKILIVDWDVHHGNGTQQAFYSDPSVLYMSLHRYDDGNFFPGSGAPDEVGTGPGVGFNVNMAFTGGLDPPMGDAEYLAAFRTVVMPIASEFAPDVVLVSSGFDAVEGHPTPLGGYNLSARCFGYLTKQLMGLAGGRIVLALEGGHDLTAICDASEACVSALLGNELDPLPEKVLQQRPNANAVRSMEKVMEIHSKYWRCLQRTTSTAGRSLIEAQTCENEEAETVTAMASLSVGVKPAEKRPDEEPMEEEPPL
The species named for assay [6] is Homo sapiens. Nature of the assay: Selectivity ratio of IC50 for recombinant HDAC7 (unknown origin) to IC50 for recombinant HDAC6 (unknown origin).
For assay [7], the species on record is Homo sapiens. Description: Selectivity ratio of IC50 for recombinant HDAC9 (unknown origin) to IC50 for recombinant HDAC6 (unknown origin).
The nature of assay [8]: Metal chelating activity compound-Zn2+ complex formation at 10 to 200 uM preincubated for 2 mins followed by di-thizone addition by microplate reader based assay. Particulars: dose 10-200 µM.
In assay [9] the test system is N9. Description: Immunomodulatory activity in LPS-induced mouse N9 microglial cells assessed as increase in TGF-beta2 expression at 0.1 to 5 uM incubated for 24 hrs by Western blot analysis. Particulars: dose 0.1-5 µM. It is filed as functional.
In assay [10] the test system is Mus musculus. Description: Anti-alzheimer activity against amyloid beta (25 to 35) induced working memory deficit in mouse assessed as increase in spontaneous alternation performance at 0.3 mg/kg, ip administered for 7 days and measured on day 8 by Y-maze test. Particulars: time 8.0 day. The assay is classed as functional, organism-based.

Structures are written as SMILES. Activity calls are given as the source filed them. The rule behind the calls is not given here.

As for `COc1ccc2[nH]cc(CCN(Cc3ccc(C(=O)NO)cc3)C(=O)/C=C/c3ccc(O)c(OC)c3)c2c1`, the IC50 in assay [1] was 0.0307 µM; in assay [3], 0.771 µM; in [4], 3.59 µM; in [5] (read-out: IC50), greater than 10 µM. For the same molecule, the EC50 in assay [2] is 10.8 µM. Also, the Ratio IC50 in assay [6] and in [7] was greater than 326 each time. Besides, the outcome in assay [8], in assay [9] and in assay [10] was Active.
With `COc1ccc2c(c1)c(CCNC(C)=O)cn2Cc1ccc(C(=O)NO)cc1`, the IC50 in assay [1] was 0.0112 µM; in assay [3] it was 0.262 µM; in assay [4], 0.838 µM; in [5] (read-out: IC50), 3.43 µM; in assay [5] (read-out: pIC50 (converted)) it was 3.39 µM. The EC50 in [2] is 56.3 µM. Further, the figures for the Ratio IC50 in assay [6] and in assay [7] were 148 and 32, respectively. Further, the result in assay [8] was Active. Besides, in [9], the outcome was inactive.

For the origin of these results see ChEMBL document CHEMBL5036306 (J Med Chem, 2021).
